{"source": "paper PMC9706920", "about": "“Aryloxypropanolamine targets amyloid aggregates and reverses Alzheimer-like phenotypes in Alzheimer mouse models” (Alzheimer's Research & Therapy, 2022)", "key": {"[1]": {"experiment": "Microsomal stability, mouse", "assay_type": "in vitro ADME", "conditions": "1 μM, 30 min, 37°C", "experimental": "(§1) To evaluate the rate of drug metabolism, we tested YIAD002 stability in liver microsomes of human, rat, and mouse. Microsomal concentration was 0.5 mg/ml in 0.1 M phosphate buffer (pH 7.4). 1 μM of YIAD002 was added to microsome solutions and was prewarmed at 37°C for 5 min. NADPH-regenerating solution was added to microsomes and incubated at 37°C for 30 min. At the end of incubation, acetonitrile with chlorpropamide was added to stop reactions and microsomal solutions were centrifuged at 14,000 rpm at 4°C for 5 min. For LC-MS/MS analysis, supernatants were injected on a Kinetex C18 column (2.1 × 100 mm, 2.6 μm particle size, Phenomenex, USA). The composition of the mobile phase was 0.1% formic acid in water (A) and 0.1% formic acid in acetonitrile (B)."}, "[2]": {"experiment": "Microsomal stability, rat", "assay_type": "in vitro ADME", "conditions": "1 μM, 30 min, 37°C", "experimental": "as §1"}, "[3]": {"experiment": "Plasma stability, human", "assay_type": "in vitro ADME", "conditions": "10 μM, 37°C, vs 0 min", "experimental": "To assess the plasma stability of YIAD002, YIAD002 stock was dissolved at a concentration of […] in DMSO. 5 μL of YIAD002 stock was added to 195 μL of human plasma or 195 μL of rat plasma and incubated at 37°C for the following time points: 0, 30, and 120 min. At the end of incubation, acetonitrile with chlorpropamide was added to stop reactions. The solutions were centrifuged at 14,000 rpm at 4°C for 5 min and the supernatant was analyzed with LC-MS/MS. High performance liquid chromatography was carried out on a Kinetex C18 column (2.1 × 100 mm, 2.6 μm particle size, Phenomenex, USA). The composition of the mobile phase was 0.1% formic acid in water (A) and 0.1% formic acid in acetonitrile (B)."}, "[4]": {"experiment": "BBB-PAMPA", "assay_type": "in vitro ADME", "conditions": "50 μM", "experimental": "Commercially available Double-Sink PAMPA (Pion® Double sink) assay was performed using a two compartment 96-well microtiter plate and protocols specified by the manufacturer. […] Stock solutions of controls and YIAD002 were dissolved in DMSO (10 mM) and subsequently diluted to 200-fold in pION buffer (pH 7.4) to 50 μM. The donor plate of the PAMPA sandwich was loaded with 50 μM solutions, and after wetting the artificial membrane with BBB lipid solution, the acceptor plate was loaded with acceptor sink buffer. Then, the acceptor plate was placed on the donor plate and incubated at 25°C for 4 h. Compound concentration in the reference, donor, and acceptor plates were measured on a UV plate."}, "[5]": {"biological_target": "T1, CYP 3A4 (Homo sapiens, UniProt P08684)", "T1 construct": "contained human liver microsomes (0.25 mg/ml); from tissue; host or cells: human liver microsomes", "T1 sequence (P08684 whole entry)": "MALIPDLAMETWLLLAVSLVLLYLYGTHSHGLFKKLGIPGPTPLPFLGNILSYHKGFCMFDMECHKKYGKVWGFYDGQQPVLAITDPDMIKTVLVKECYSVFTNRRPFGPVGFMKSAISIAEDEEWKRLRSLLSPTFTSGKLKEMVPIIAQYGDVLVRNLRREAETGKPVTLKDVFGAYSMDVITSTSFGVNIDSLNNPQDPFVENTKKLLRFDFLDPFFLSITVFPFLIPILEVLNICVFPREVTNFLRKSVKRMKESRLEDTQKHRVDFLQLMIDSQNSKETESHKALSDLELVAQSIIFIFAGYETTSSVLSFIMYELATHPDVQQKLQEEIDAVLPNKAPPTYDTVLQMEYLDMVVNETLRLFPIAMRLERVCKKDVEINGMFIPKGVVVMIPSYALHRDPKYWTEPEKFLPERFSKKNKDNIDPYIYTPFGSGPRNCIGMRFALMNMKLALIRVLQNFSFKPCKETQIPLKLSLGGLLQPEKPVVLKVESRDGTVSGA", "experiment": "CYP450 inhibition assay, 3A4", "assay_type": "in vitro ADME", "conditions": "YIAD002 10 μM, human liver microsomes; weak or no inhibition; read-out: CYP 3A4 inhibition, IC50 (inhibition criteria)", "experimental": "(§2) Incubation mixtures for Cytochrome P450s (CYPs) inhibition assay contained human liver microsomes (0.25 mg/ml), 0.1 M phosphate buffer (pH 7.4), 10 μM of YIAD002, and an enzyme substrate cocktail (phenacetin 50 μM, diclofenac 10 μM, S-mephenytoin 100 μM, dextromethorphan 5 μM, and midazolam 2.5 μM). The mixture was pre-incubated at 37°C for 5 min and 1 mM NAPDH was added to initiate reactions. After 15 min of incubation, acetonitrile with terfenadine was added to stop reactions and microsomal solutions were centrifuged at 14,000 rpm at 4°C for 5 min. For LC-MS/MS analysis, supernatants were injected on a Kinetex C18 column (2.1 × 100 mm, 2.6 μm particle size, Phenomenex, USA). The composition of the mobile phase was 0.1% formic acid in water (A) and 0.1% formic acid in acetonitrile (B)."}, "[6]": {"biological_target": "α-synuclein aggregates (Homo sapiens, UniProt P37840)", "experiment": "ThT dissociation assay against α-synuclein aggregation", "assay_type": "biochemical", "conditions": "α-synuclein 35 μM pre-aggregated 3 days, compound additional 3 days", "experimental": "[picture] Figure S5. ThT dissocation assay against α-synuclein aggregation. Dissociative effects of YIAD001 and YIAD002 against α-synuclein aggregation were evaluated using ThT fluorescence. α-synuclein (35 μM) was pre-aggregated for 3 days. YIAD001 and YIAD002 were added to and co-incubated with pre-aggregated samples for an additional 3 days. Aggregation time for α-synuclein is indicated as ‘+’ for 3 days and ‘++’ for 6 days. All fluorescence intensities were normalized and statistically compared to α-synuclein-only 3 days (+) control (100%). One-way analysis of variance followed by Bonferroni’s post-hoc comparisons tests were performed in all statistical analyses (****P < 0.0001). Data are presented as mean ± SEM. Abbreviations: Aggr. = Aggregation, Cpd. = Compound."}, "[7]": {"biological_target": "T2, CYP 1A2 (Homo sapiens, UniProt P05177)", "T2 construct": "[…]; from tissue; host or cells: human liver microsomes", "T2 sequence (P05177 1-516)": "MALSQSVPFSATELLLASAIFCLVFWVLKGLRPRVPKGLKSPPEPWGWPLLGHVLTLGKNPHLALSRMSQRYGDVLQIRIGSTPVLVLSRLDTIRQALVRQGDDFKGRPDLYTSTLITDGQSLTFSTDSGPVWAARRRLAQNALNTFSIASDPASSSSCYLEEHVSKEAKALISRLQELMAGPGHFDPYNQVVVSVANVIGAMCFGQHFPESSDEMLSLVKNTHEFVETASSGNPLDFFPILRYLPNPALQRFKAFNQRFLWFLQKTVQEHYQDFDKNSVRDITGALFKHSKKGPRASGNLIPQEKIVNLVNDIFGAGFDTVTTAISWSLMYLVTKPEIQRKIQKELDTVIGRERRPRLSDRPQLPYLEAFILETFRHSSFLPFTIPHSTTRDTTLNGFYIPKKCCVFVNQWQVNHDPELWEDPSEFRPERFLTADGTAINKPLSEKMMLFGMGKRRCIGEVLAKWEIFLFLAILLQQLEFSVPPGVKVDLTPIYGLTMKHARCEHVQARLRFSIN", "experiment": "CYP450 inhibition assay, 1A2", "assay_type": "in vitro ADME", "conditions": "YIAD002 10 μM, human liver microsomes; weak or no inhibition; read-out: CYP 1A2 inhibition, IC50 (inhibition criteria)", "experimental": "as §2"}}, "data": [{"compound": "CCC(C)(C)c1ccc(OCC(O)CN2CCCC2)c(C(C)(C)CC)c1.Cl", "note": "(stereo not drawn) [YIAD002, 1-(3-(2,4-Di-tert-pentylphenoxy)-2-hydroxypropyl)pyrrolidin-1-ium chloride]", "values": [{"measurement": "Remaining compound in mouse microsomes", "setting": "[1]", "result": 14.2, "unit": "%"}, {"measurement": "Remaining compound in rat microsomes", "setting": "[2]", "result": 11.2, "unit": "%"}, {"measurement": "Compound remaining in human plasma", "setting": "[3]; 30 min", "result": 96.3, "unit": "%"}, {"measurement": "Compound remaining in human plasma", "setting": "[3]; 120 min", "result": 92.6, "unit": "%"}, {"measurement": "BBB permeability class", "setting": "[4]; classification ranges ref 25", "result": "high BBB permeability"}, {"measurement": "Papp at 4 h, 50 μM", "setting": "[4]; PAMPA, pH 7.4, 25°C, 4 h, read-out: Effective permeability coefficient Pe", "result": 36.8, "unit": "×10⁻⁶ cm/s"}, {"measurement": "IC50", "setting": "[5]", "result": "> 10", "unit": "µM"}, {"measurement": "Interaction with α-synuclein aggregates (ThT dissociation)", "setting": "[6]", "result": "did not interact with α-synuclein aggregates"}, {"measurement": "IC50", "setting": "[7]", "result": "> 10", "unit": "µM"}]}]}
